Source: US20030022158A1, “Peptides from the TT virus sequence and monospecific antibodies binding to the TT virus” (priority 1999, published 2003)

What was measured:
[1] = system: human antibodies in human serum samples; assay: EIA reactivities of three human serum samples with deletion and alanine substitution analogues of SEQ ID NO: 1 (Table 6); assay type: binding; settings: positive = more than 50% of the reactivity of the original peptide
Procedure: The EIAs used to identify which peptides interacted with human sera followed protocols known in the art. (See Zhang et al., J Gen Virol, 78:2735-2746 (1997), herein expressly incorporated by reference in its entirety). Briefly, microplates (Nunc, Denmark) were coated for 48 hours with synthetic peptides at a concentration of 10 μg/ml in 0.05M sodium carbonate buffer pH 9.6. After blocking for 2 hours at room temperature with phosphate buffered saline containing 1% bovine serum albumin, 2% goat serum and 0.05% Tween 20 (dilution buffer) the plates were incubated with human sera diluted 1:100 in dilution buffer. Bound human IgG was detected by incubation with anti-human IgG antibodies conjugated to alkaline phosphatase (Sigma Chemicals, St. Louis, Mo.). The plates were developed by the addition of […] (Sigma) and the optical densities were determined at 405 nm.
The reactivity to the TATTTTYAYPGTNRPPV (SEQ ID NO: 1) peptide was further characterized by mapping the reactivity of deletion and substitution peptide analogues.

[2] = system: human IgG antibodies in human serum samples; assay: EIA of human antibody reactivities to overlapping synthetic peptides of TTV ORF1 and ORF2 (Tables 2 and 3); assay type: binding; settings: for optical density (OD) at 405 nm: serum diluted 1:100, OD over 0.500 considered positive
In short: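 Human serum diluted 1:100 was tested for IgG binding to 18-residue overlapping TTV peptides coated at 10 μg/ml (pH 9.6 carbonate, 48 h). Blocking buffer held BSA, goat serum and Tween 20. Alkaline phosphatase anti-human IgG gave a signal measured as OD at 405 nm.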

peptide 1: overlapping synthetic peptide of TTV ORF1 (TATTTTYAYPGTNRPPV)
OD at 405 nm, reactivity of human serum sample P4 ([1]; human serum sample P4): 0.839 OD | OD at 405 nm, reactivity of human serum sample P7 ([1]; human serum sample P7): 1.845 OD | OD at 405 nm, reactivity of human serum sample P36 ([1]; human serum sample P36): 0.825 OD | optical density (OD) at 405 nm ([2]; human serum sample 1, negative for TTV DNA by PCR): 0.00 OD | optical density (OD) at 405 nm ([2]; human serum sample 2, negative for TTV DNA by PCR): 0.00 OD | optical density (OD) at 405 nm ([2]; human serum sample 3, negative for TTV DNA by PCR): 0.00 OD | optical density (OD) at 405 nm ([2]; human serum sample 4, negative for TTV DNA by PCR): 0.00 OD | optical density (OD) at 405 nm ([2]; human serum sample 5, negative for TTV DNA by PCR): 0.00 OD | optical density (OD) at 405 nm ([2]; human serum sample 6, negative for TTV DNA by PCR): 0.00 OD | optical density (OD) at 405 nm ([2]; human serum sample 7, negative for TTV DNA by PCR): 0.00 OD | optical density (OD) at 405 nm ([2]; human serum sample 9, positive for TTV DNA by PCR): 0.00 OD | optical density (OD) at 405 nm ([2]; human serum sample 11, negative for TTV DNA by PCR): 0.00 OD | optical density (OD) at 405 nm ([2]; human serum sample 18, positive for TTV DNA by PCR): 0.00 OD | optical density (OD) at 405 nm ([2]; human serum sample 36, positive for TTV DNA by PCR): 0.00 OD | optical density (OD) at 405 nm ([2]; human serum sample 48, positive for TTV DNA by PCR): 0.00 OD | optical density (OD) at 405 nm ([2]; human serum sample 98, positive for TTV DNA by PCR): 0.00 OD | optical density (OD) at 405 nm ([2]; human serum sample 110, positive for TTV DNA by PCR): 0.00 OD | optical density (OD) at 405 nm ([2]; human serum sample 155, positive for TTV DNA by PCR): 0.00 OD | optical density (OD) at 405 nm ([2]; human serum sample 157, positive for TTV DNA by PCR): 0.00 OD | optical density (OD) at 405 nm, EIA reactivity of human serum sample 1 ([2]; serum sample 1, negative for TTV DNA by PCR, serum 1:100, peptide coated 10 μg/ml, OD over 0.500 positive): 0.09 OD | optical density (OD) at 405 nm, EIA reactivity of human serum sample 2 ([2]; serum sample 2, negative for TTV DNA by PCR, serum 1:100, peptide coated 10 μg/ml, OD over 0.500 positive): 0.10 OD | optical density (OD) at 405 nm, EIA reactivity of human serum sample 3 ([2]; serum sample 3, negative for TTV DNA by PCR, serum 1:100, peptide coated 10 μg/ml, OD over 0.500 positive): 0.13 OD | optical density (OD) at 405 nm, EIA reactivity of human serum sample 4 ([2]; serum sample 4, negative for TTV DNA by PCR, serum 1:100, peptide coated 10 μg/ml, OD over 0.500 positive): 0.11 OD | optical density (OD) at 405 nm, EIA reactivity of human serum sample 5 ([2]; serum sample 5, negative for TTV DNA by PCR, serum 1:100, peptide coated 10 μg/ml, OD over 0.500 positive): 0.10 OD | optical density (OD) at 405 nm, EIA reactivity of human serum sample 6 ([2]; serum sample 6, negative for TTV DNA by PCR, serum 1:100, peptide coated 10 μg/ml, OD over 0.500 positive): 0.16 OD | optical density (OD) at 405 nm, EIA reactivity of human serum sample 7 ([2]; serum sample 7, negative for TTV DNA by PCR, serum 1:100, peptide coated 10 μg/ml, OD over 0.500 positive): 0.09 OD | optical density (OD) at 405 nm, EIA reactivity of human serum sample 9 ([2]; serum sample 9, positive for TTV DNA by PCR, serum 1:100, peptide coated 10 μg/ml, OD over 0.500 positive): 0.08 OD | optical density (OD) at 405 nm, EIA reactivity of human serum sample 11 ([2]; serum sample 11, negative for TTV DNA by PCR, serum 1:100, peptide coated 10 μg/ml, OD over 0.500 positive): 0.12 OD | optical density (OD) at 405 nm, EIA reactivity of human serum sample 18 ([2]; serum sample 18, positive for TTV DNA by PCR, serum 1:100, peptide coated 10 μg/ml, OD over 0.500 positive): 0.08 OD | optical density (OD) at 405 nm, EIA reactivity of human serum sample 36 ([2]; serum sample 36, positive for TTV DNA by PCR, serum 1:100, peptide coated 10 μg/ml, OD over 0.500 positive): 0.09 OD | optical density (OD) at 405 nm, EIA reactivity of human serum sample 48 ([2]; serum sample 48, positive for TTV DNA by PCR, serum 1:100, peptide coated 10 μg/ml, OD over 0.500 positive): 0.08 OD | optical density (OD) at 405 nm, EIA reactivity of human serum sample 98 ([2]; serum sample 98, positive for TTV DNA by PCR, serum 1:100, peptide coated 10 μg/ml, OD over 0.500 positive): 0.08 OD | optical density (OD) at 405 nm, EIA reactivity of human serum sample 110 ([2]; serum sample 110, positive for TTV DNA by PCR, serum 1:100, peptide coated 10 μg/ml, OD over 0.500 positive): 0.08 OD | optical density (OD) at 405 nm, EIA reactivity of human serum sample 155 ([2]; serum sample 155, positive for TTV DNA by PCR, serum 1:100, peptide coated 10 μg/ml, OD over 0.500 positive): 0.14 OD | optical density (OD) at 405 nm, EIA reactivity of human serum sample 157 ([2]; serum sample 157, positive for TTV DNA by PCR, serum 1:100, peptide coated 10 μg/ml, OD over 0.500 positive): 0.14 OD
